Measured values taken from PubChem BioAssay AID248 (DTP/NCI, 2004).
Several values for one entry are separate records, joined by “and”; a condition that tells them apart may be missing. Identical values can stand only once. Toxic doses and inconclusive results are not listed. Rule as the data show it: active = T/C of 150% or more; inactive = T/C below 125%.

Tested on: L1210 leukemia ip in BDF1 mice, survival T/C
Experiment: NCI In Vivo Anticancer Drug Screen. Data for tumor model L1210 Leukemia (intraperitoneal) in B6D2F1 (BDF1) mice
Details: endpoint: mean survival time, higher = longer survival
Summary of the method: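 Read-out is survival time, reported as the treated-group measurement over the vehicle-control measurement.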

[1] = dose: 100.0 mg/kg/injection, schedule: Q04DX002 (ip), vehicle: saline with Tween-80
[2] = dose: 200.0 mg/kg/injection, schedule: Q04DX002 (ip), vehicle: saline with Tween-80
[3] = dose: 400.0 mg/kg/injection, schedule: Q04DX002 (ip), vehicle: saline with Tween-80
[4] = dose: 100.0 mg/kg/injection, schedule: Q04DX003 (ip), vehicle: saline with Tween-80
[5] = dose: 200.0 mg/kg/injection, schedule: Q04DX003 (ip), vehicle: saline with Tween-80
[6] = dose: 400.0 mg/kg/injection, schedule: Q04DX003 (ip), vehicle: saline with Tween-80
[7] = dose: 100.0 mg/kg/injection, schedule: Q01DX001 (ip), vehicle: carboxymethylcellulose (CMC)
[8] = dose: 200.0 mg/kg/injection, schedule: Q01DX001 (ip), vehicle: carboxymethylcellulose (CMC)
[9] = dose: 400.0 mg/kg/injection, schedule: Q01DX001 (ip), vehicle: carboxymethylcellulose (CMC)
[10] = dose: 100.0 mg/kg/injection, schedule: Q01DX001 (ip), vehicle: saline
[11] = dose: 200.0 mg/kg/injection, schedule: Q01DX001 (ip), vehicle: saline
[12] = dose: 400.0 mg/kg/injection, schedule: Q01DX001 (ip), vehicle: saline
[13] = dose: 100.0 mg/kg/injection, schedule: Q01DX009 (ip), vehicle: acetone
[14] = dose: 50.0 mg/kg/injection, schedule: Q01DX009 (ip), vehicle: acetone
[15] = dose: 200.0 mg/kg/injection, schedule: Q01DX009 (ip), vehicle: acetone
[16] = dose: 100.0 mg/kg/injection, schedule: Q01DX009 (ip), vehicle: saline
[17] = dose: 200.0 mg/kg/injection, schedule: Q01DX009 (ip), vehicle: saline
[18] = dose: 400.0 mg/kg/injection, schedule: Q01DX009 (ip), vehicle: saline

Measured: T/C

CCOCC(C#N)C#N
inactive: dose: 6.25 mg/kg/injection, schedule: Q01DX009 (ip), vehicle: saline 94 % of control | dose: 6.25 mg/kg/injection, schedule: Q04DX003 (ip), vehicle: saline 96 % of control | dose: 12.5 mg/kg/injection, schedule: Q01DX009 (ip), vehicle: saline 92 % of control | dose: 12.5 mg/kg/injection, schedule: Q04DX003 (ip), vehicle: saline 106 % of control | dose: 25.0 mg/kg/injection, schedule: Q04DX003 (ip), vehicle: saline 99 % of control

BrC[Si](c1ccccc1)(c1ccccc1)c1ccccc1
inactive: [1] 96 % of control | [2] 96 % of control | [3] 92 % of control

Nc1cccc2c1C(=O)c1cccc(Cl)c1C2=O
inactive: [4] 94 % of control | [5] 101 % of control | [6] 94 % of control

O=c1ccsc2ccccc12
inactive: dose: 25.0 mg/kg/injection, schedule: Q01DX001 (ip), vehicle: saline with Tween-80 103 % of control | dose: 50.0 mg/kg/injection, schedule: Q01DX001 (ip), vehicle: saline with Tween-80 97 % of control | dose: 100.0 mg/kg/injection, schedule: Q01DX001 (ip), vehicle: saline with Tween-80 105 % of control and 92 % of control

Cc1ccc(-c2ccc(C)cc2[N+](=O)[O-])cc1
inactive: [7] 91 % of control | [8] 100 % of control | [9] 102 % of control

N#CC12CCCCC(=O)N1C=Cc1ccccc12 (centres undefined)
inactive: [10] 96 % of control | [11] 96 % of control | [12] 93 % of control

C/C=C/C1OCCO1
inactive: [13] 92 % of control

COc1cc2c(c3c1c(=O)c1ccccc1n3C)C=CC(C)(C)O2
inactive: dose: 6.0 mg/kg/injection, schedule: Q01DX001 (ip), vehicle: acetone 101 % of control | dose: 7.5 mg/kg/injection, schedule: Q01DX Z (ip), vehicle: other 106 % of control | dose: 12.0 mg/kg/injection, schedule: Q01DX001 (ip), vehicle: acetone 97 % of control | dose: 15.0 mg/kg/injection, schedule: Q01DX001 (ip), vehicle: other 97 % of control | dose: 15.0 mg/kg/injection, schedule: Q01DX Z (ip), vehicle: other 114 % of control | dose: 25.0 mg/kg/injection, schedule: Q01DX001 (ip), vehicle: acetone 105 % of control | dose: 30.0 mg/kg/injection, schedule: Q01DX001 (ip), vehicle: other 94 % of control | dose: 30.0 mg/kg/injection, schedule: Q01DX Z (ip), vehicle: other 122 % of control | dose: 50.0 mg/kg/injection, schedule: Q01DX001 (ip), vehicle: acetone 118 % of control | [14] 103 % of control | dose: 60.0 mg/kg/injection, schedule: Q01DX001 (ip), vehicle: other 105 % of control | dose: 60.0 mg/kg/injection, schedule: Q01DX Z (ip), vehicle: other 103 % of control | dose: 100.0 mg/kg/injection, schedule: Q01DX001 (ip), vehicle: acetone 114 % of control | [13] 91 % of control | dose: 120.0 mg/kg/injection, schedule: Q01DX001 (ip), vehicle: other 105 % of control | dose: 400.0 mg/kg/injection, schedule: Q01DX001 (ip), vehicle: acetone 116 % of control

COc1cc(C(=O)c2cocc2C(=O)c2ccc3c(c2)OCO3)cc(OC)c1OC
inactive: [14] 110 % of control | [13] 94 % of control | [15] 112 % of control | dose: 400.0 mg/kg/injection, schedule: Q01DX009 (ip), vehicle: acetone 110 % of control

O=C1OCCN1c1ccccc1
inactive: dose: 100.0 mg/kg/injection, schedule: Q01DX001 (ip), vehicle: Klucel (hydroxypropylcellulose) (HPC) 90 % of control | dose: 100.0 mg/kg/injection, schedule: Q01DX009 (ip), vehicle: saline with Tween-80 93 % of control | [4] 101 % of control | dose: 200.0 mg/kg/injection, schedule: Q01DX001 (ip), vehicle: Klucel (hydroxypropylcellulose) (HPC) 87 % of control | dose: 200.0 mg/kg/injection, schedule: Q01DX009 (ip), vehicle: saline with Tween-80 90 % of control | [5] 113 % of control | dose: 400.0 mg/kg/injection, schedule: Q01DX001 (ip), vehicle: Klucel (hydroxypropylcellulose) (HPC) 100 % of control | dose: 400.0 mg/kg/injection, schedule: Q01DX009 (ip), vehicle: saline with Tween-80 93 % of control | [6] 95 % of control

C(=C\C1SCCCS1)/c1ccccc1
inactive: [1] 101 % of control | [2] 114 % of control | [3] 101 % of control

CC(=O)Nc1cccc(OCc2cccc([N+](=O)[O-])c2)c1
inactive: [7] 97 % of control | [8] 92 % of control | [9] 108 % of control

C1CCC(C2CCC(C3CCCCC3)CC2)CC1 (centres undefined)
inactive: [10] 90 % of control | [11] 90 % of control

CCOC(=O)c1ccc(OC)nc1
inactive: [16] 104 % of control | [17] 102 % of control | [18] 98 % of control

O=C1C2=C(CCCC2)C(=O)c2ccccc21
inactive: dose: 50.0 mg/kg/injection, schedule: Q01DX001 (ip), vehicle: saline 93 % of control | [10] 100 % of control | [11] 96 % of control | [12] 102 % of control

COc1c2ccccc2cc2ccccc12
inactive: [14] 94 % of control | [13] 92 % of control | [15] 89 % of control

O=C(O)CCc1c2ccc(=O)c(O)c-2oc2c(O)c(O)ccc12
inactive: dose: 100.0 mg/kg/injection, schedule: Q04DX003 (ip), vehicle: saline 106 % of control | dose: 200.0 mg/kg/injection, schedule: Q04DX003 (ip), vehicle: saline 105 % of control | dose: 400.0 mg/kg/injection, schedule: Q04DX003 (ip), vehicle: saline 100 % of control

CCOC(=O)c1sc(NC(C)=O)c(C(=O)OCC)c1C
inactive: [16] 96 % of control | [4] 98 % of control | [17] 101 % of control | [5] 114 % of control | [18] 101 % of control | [6] 96 % of control

Cc1cc2c(cc1C)N(C(=O)CN1CCOCC1)CC(=O)N2
inactive: [14] 95 % of control | [13] 88 % of control | dose: 100.0 mg/kg/injection, schedule: Q04DX003 (ip), vehicle: acetone 98 % of control | [15] 95 % of control | dose: 200.0 mg/kg/injection, schedule: Q04DX003 (ip), vehicle: acetone 97 % of control | dose: 400.0 mg/kg/injection, schedule: Q04DX003 (ip), vehicle: acetone 92 % of control

O=C1CC(Cc2n[nH]c3c2CCC3)CC(=O)N1
inactive: [7] 103 % of control | dose: 100.0 mg/kg/injection, schedule: Q04DX003 (ip), vehicle: carboxymethylcellulose (CMC) 97 % of control | [8] 97 % of control | dose: 200.0 mg/kg/injection, schedule: Q04DX003 (ip), vehicle: carboxymethylcellulose (CMC) 94 % of control | [9] 105 % of control | dose: 400.0 mg/kg/injection, schedule: Q04DX003 (ip), vehicle: carboxymethylcellulose (CMC) 101 % of control
